# Biological target: Branched-chain-amino-acid aminotransferase, mitochondrial (Homo sapiens, UniProt O15382)
# Sequence (O15382 whole entry): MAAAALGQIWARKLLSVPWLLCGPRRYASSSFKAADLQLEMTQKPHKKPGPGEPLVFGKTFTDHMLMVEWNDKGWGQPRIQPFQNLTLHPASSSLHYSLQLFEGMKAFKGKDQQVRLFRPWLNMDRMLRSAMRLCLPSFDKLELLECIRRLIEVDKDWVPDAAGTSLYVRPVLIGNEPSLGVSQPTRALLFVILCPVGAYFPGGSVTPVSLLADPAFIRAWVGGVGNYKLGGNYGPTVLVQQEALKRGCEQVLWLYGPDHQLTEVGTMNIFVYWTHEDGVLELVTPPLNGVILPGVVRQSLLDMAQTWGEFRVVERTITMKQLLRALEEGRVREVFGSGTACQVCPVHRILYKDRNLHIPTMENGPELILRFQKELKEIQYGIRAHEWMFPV
smiles,measurement,value
Cc1ccccc1Oc1cc(-n2c(=O)cc(C(F)(F)F)[nH]c2=O)c2ccccc2c1 [BAY-771],IC50,10.8 µM (not active)

# From ChEMBL document CHEMBL4507325 (2021)
